Experimental data published in US11203613B2, “Peptidomimetic proteasome inhibitors” (CORNELL UNIVERSITY, priority 2017, dated 2021).

Target: Human Constitutive (Hu C-20S) β5 Active Subunit (Homo sapiens, UniProt P28074)
Experiment: IC50 determination, human constitutive 20S proteasome β5c (suc-LLVY-AMC hydrolysis)
Format: biochemical
Details: Table 3; IC50 against human constitutive β5 active subunit; read-out: Hu-C20S β5

SMILES	IC50
CC[C@H]1CCCCN1C(=O)C[C@H](NC(=O)CCC(C)(C)C)C(=O)N[C@@H](C)c1nc2c(F)cccc2[nH]1 [CEN-13, N—((S)-4-((S)-2-Ethylpiperidin-1-yl)-1-(((S)-1-(4-fluoro-1H-benzo[d]imidazol-2-yl)ethyl)amino)-1,4-dioxobutan-2-yl)-4,4-dimethylpentanamide]	11.2 µM
CC[C@H]1CCCCN1C(=O)C[C@H](NC(=O)CC(F)(F)F)C(=O)N[C@@H](C)c1nc2c(F)cccc2[nH]1 [CEN-7, (S)-4-((S)-2-Ethylpiperidin-1-yl)-N—((S)-1-(4-fluoro-1H-benzo[d]imidazol-2-yl)ethyl)-4-oxo-2-(3,3,3-trifluoropropanamido)butanamide]	4.2 µM
C[C@H](NC(=O)[C@H](CC(=O)N1CCCC[C@@H]1C)NC(=O)C1CC2(CCC2)C1)c1nc2c(F)cccc2[nH]1 [CEN-42, N—((S)-1-(((S)-1-(4-Fluoro-1H-benzo[d]imidazol-2-yl)ethyl)amino)-4-((S)-2-methylpiperidin-1-yl)-1,4-dioxobutan-2-yl)spiro[3.3]heptane-2-carboxamide]	27.4 µM
C[C@H](NC(=O)[C@H](CC(=O)N1CCCC[C@@H]1C)NC(=O)C1CC2(C1)CC(F)(F)C2)c1nc2c(F)cccc2[nH]1 [CEN-57, 6,6-Difluoro-N—((S)-1-(((S)-1-(4-fluoro-1H-benzo[d]imidazol-2-yl)ethyl)amino)-4-((S)-2-methylpiperidin-1-yl)-1,4-dioxobutan-2-yl)spiro[3.3]heptane-2-carboxamide]	28 µM
CC[C@H]1CCCCN1C(=O)C[C@H](NC(=O)CC1CC1)C(=O)N[C@@H](C)c1nc2c(F)cccc2[nH]1 [CEN-2, (S)-2-(2-Cyclopropylacetamido)-4-((S)-2-ethylpiperidin-1-yl)-N—((S)-1-(4-fluoro-1H-benzo[d]imidazol-2-yl)ethyl)-4-oxobutanamide]	16.9 µM
CC(C)CCC(=O)N[C@@H](CC(=O)N1CCCCC1)C(=O)N[C@@H](C)c1ncc(-c2ccc(F)cc2F)[nH]1 [CEN-84, N—((S)-1-(((S)-1-(5-(2,4-Difluorophenyl)-1H-imidazol-2-yl)ethyl)amino)-1,4-dioxo-4-(piperidin-1-yl)butan-2-yl)-4-methylpentanamide]	7.3 µM
C[C@H](NC(=O)[C@H](CC(=O)N1CCCC[C@@H]1C)NC(=O)CC1CC1)c1ncc(Cc2ccccc2)[nH]1 [CEN-124, (S)—N—((S)-1-(5-Benzyl-1H-imidazol-2-yl)ethyl)-2-(2-cyclopropylacetamido)-4-((S)-2-methylpiperidin-1-yl)-4-oxobutanamide]	10.4 µM
CC(C)C(=O)CN[C@@H](CC(=O)N1CCCC[C@@H]1C)C(=O)N[C@@H](C)c1ncc(-c2ccc(F)cc2F)[nH]1 [CEN-85, (S)—N—((S)-1-(5-(2,4-Difluorophenyl)-1H-imidazol-2-yl)ethyl)-2-((3-methyl-2-oxobutyl)amino)-4-((S)-2-methylpiperidin-1-yl)-4-oxobutanamide]	9.9 µM
Cc1cc(C(=O)N[C@@H](CC(=O)N2CCC[C@@H]2c2ccccc2)C(=O)N[C@@H](C)c2ncc(Cc3ccccc3)[nH]2)no1 [CEN-123, N—((S)-1-(((S)-1-(5-Benzyl-1H-imidazol-2-yl)ethyl)amino)-1,4-dioxo-4-((R)-2-phenylpyrrolidin-1-yl)butan-2-yl)-5-methylisoxazole-3-carboxamide]	7.4 µM
CC(C)CCC(=O)N[C@@H](CC(=O)N1CCCC[C@@H]1C)C(=O)NCc1nc2ccccc2[nH]1 [CEN-31, N—((S)-1-(((1H-Benzo[d]imidazol-2-yl)methyl)amino)-4-((S)-2-methylpiperidin-1-yl)-1,4-dioxobutan-2-yl)-4-methylpentanamide]	17.6 µM
C[C@H](NC(=O)[C@H](CC(=O)N1CCCC[C@@H]1C)NC(=O)CCC(C)(C)C)c1nc2c(F)cccc2[nH]1 [CEN-41, N—((S)-1-(((S)-1-(4-Fluoro-1H-benzo[d]Imidazol-2-yl)ethyl)amino)-4-((S)-2-methylpiperidin-1-yl)-1,4-dioxobutan-2-yl)-4,4-dimethylpentanamide]	4.8 µM
CC[C@H]1CCCCN1C(=O)C[C@H](NC(=O)c1cncs1)C(=O)N[C@@H](C)c1nc2c(F)cccc2[nH]1 [CEN-11, N—((S)-4-((S)-2-Ethylpiperidin-1-yl)-1-(((S)-1-(4-fluoro-1H-benzo[d]imidazol-2-yl)ethyl)amino)-1,4-dioxobutan-2-yl)thiazole-5-carboxamide]	19.2 µM
CC[C@H]1CCCCN1C(=O)C[C@H](NC(=O)C1CC1C(C)C)C(=O)N[C@@H](C)c1nc2c(F)cccc2[nH]1 (stereo partly drawn) [CEN-10, N—((S)-4-((S)-2-Ethylpiperidin-1-yl)-1-(((S)-1-(4-fluoro-1H-benzo[d]imidazol-2-yl)ethyl)amino)-1,4-dioxobutan-2-yl)-2-isopropylcyclopropane-1-carboxamide]	37.7 µM
Cc1cc(C(=O)N[C@@H](CC(=O)N2CCCCC2C)C(=O)N[C@@H](C)c2ncc(-c3ccccc3)[nH]2)no1 (stereo partly drawn) [CEN-117, 5-Methyl-N-((2S)-4-(2-methylpiperidin-1-yl)-1,4-dioxo-1-(((S)-1-(5-phenyl-1H-imidazol-2-yl)ethyl)amino)butan-2-yl)isoxazole-3-carboxamide]	11 µM
Cc1cc(C(=O)N[C@@H](CC(=O)N2CCCC[C@@H]2C)C(=O)N[C@@H](C)c2ncc(-c3ccccc3F)[nH]2)no1 [CEN-118, N—((S)-1-(((S)-1-(5-(2-Fluorophenyl)-1H-imidazol-2-yl)ethyl)amino)-4-((S)-2-methylpiperidin-1-yl)-1,4-dioxobutan-2-yl)-5-methylisoxazole-3-carboxamide]	15.8 µM
Cc1ccc(S(=O)(=O)N[C@@H](CC(=O)NC(C)(C)C)C(=O)NC2(c3nc4c(F)cccc4[nH]3)CC2)cc1 [CEN-69, (S)—N^4-(tert-Butyl)-N^1-(1-(4-fluoro-1H-benzo[d]Imidazol-2-yl)cyclopropyl)-2-((4-methylphenyl)sulfonamido)succinamide]	> 100 µM
CC[C@H]1CCCCN1C(=O)C[C@H](NC(=O)N1CCCCC1)C(=O)N[C@@H](C)c1nc2c(F)cccc2[nH]1 [CEN-12, N—((S)-4-((S)-2-Ethylpiperidin-1-yl)-1-(((S)-1-(4-fluoro-1H-benzo[d]imidazol-2-yl)ethyl)amino)-1,4-dioxobutan-2-yl)piperidine-1-carboxamide]	3 µM
CC1CC(C(=O)N[C@@H](CC(=O)N2CCC[C@@H]2c2ccccc2)C(=O)NC(C)c2nc3ccccc3[nH]2)C1 (stereo partly drawn) [CEN-46, N-((2S)-1-((1-(1H-Benzo[d]imidazol-2-yl)ethyl)amino)-1,4-dioxo-4-((R)-2-phenylpyrrolidin-1-yl)butan-2-yl)-3-methylcyclobutane-1-carboxamide]	8.4 µM
Cc1ccc(S(=O)(=O)N[C@H](C(=O)N[C@@H](C)c2nc3cccc(F)c3[nH]2)[C@@H](C)O)cc1 [CEN-71, (2S,3R)—N—((S)-1-(7-Fluoro-1H-benzo[d]imidazol-2-yl)ethyl)-3-hydroxy-2-((4-methylphenyl)sulfonamido)butanamide]	> 100 µM
CC(C)CCC(=O)N[C@@H](CC(=O)N1CCC[C@@H]1c1ccccc1)C(=O)N[C@H](C)c1nc2ccccc2[nH]1 [CEN-49, N—((S)-1-(((R)-1-(1H-Benzo[d]imidazol-2-yl)ethyl)amino)-1,4-dioxo-4-((R)-2-phenylpyrrolidin-1-yl)butan-2-yl)-4-methylpentanamide]	50 µM
CC(C)(C)NC(=O)CC[C@H](NC(=O)CCc1ccc(F)cc1)C(=O)NC1(c2nc3cccc(F)c3[nH]2)CC1 [CEN-73, (S)—N5-(tert-Butyl)-N1-(1-(7-fluoro-1H-benzo[d]Imidazol-2-yl)cyclopropyl)-2-(3-(4-fluorophenyl)propanamido)pentanediamide]	> 100 µM
C[C@H](NC(=O)[C@H](CC(=O)N1CCCC[C@@H]1C)NC(=O)c1cncs1)c1ncc(-c2ccc(F)cc2F)[nH]1 [CEN-98, N—((S)-1-(((S)-1-(5-(2,4-Difluorophenyl)-1H-imidazol-2-yl)ethyl)amino)-4-((S)-2-methylpiperidin-1-yl)-1,4-dioxobutan-2-yl)thiazole-5-carboxamide]	7.1 µM
CC[C@H]1CCCCN1C(=O)C[C@H](NC(=O)N(C)CC(C)C)C(=O)N[C@@H](C)c1nc2c(F)cccc2[nH]1 [CEN-15, (S)-4-((S)-2-Ethylpiperidin-1-yl)-N—((S)-1-(4-fluoro-1H-benzo[d]imidazol-2-yl)ethyl)-2-(3-isobutyl-3-methylureido)-4-oxobutanamide]	5 µM
CC(C)CCS(=O)(=O)N[C@@H](CC(=O)N1CCC[C@@H]1c1ccccc1)C(=O)NC(C)c1nc2ccccc2[nH]1 (stereo partly drawn) [CEN-58, (2S)—N-(1-(1H-Benzo[d]imidazol-2-yl)ethyl)-2-((3-methylbutyl)sulfonamido)-4-oxo-4-((R)-2-phenylpyrrolidin-1-yl)butanamide]	13.9 µM
CC[C@H]1CCCCN1C(=O)C[C@H](NC(=O)CCC(C)C)C(=O)N[C@@H](C)c1nc2ccccc2[nH]1 [CEN-28, N—((S)-1-(((S)-1-(1H-Benzo[d]imidazol-2-yl)ethyl)amino)-4-((S)-2-ethylpiperidin-1-yl)-1,4-dioxobutan-2-yl)-4-methylpentanamide]	14.8 µM
C[C@H](NC(=O)[C@H](CC(=O)N1CCC[C@@H]1c1ccccc1)NC(=O)CCC(C)(C)C)c1nc2ccccc2[nH]1 [CEN-54, N—((S)-1-(((S)-1-(1H-Benzo[d]imidazol-2-yl)ethyl)amino)-1,4-dioxo-4-((R)-2-phenylpyrrolidin-1-yl)butan-2-yl)-4,4-dimethylpentanamide]	16.6 µM
C[C@H](NC(=O)[C@H](CC(=O)N1CCCC[C@@H]1C)NC(=O)C1CC(C)(C)C1)c1ncc(-c2ccc(F)cc2F)[nH]1 [CEN-96, N—((S)-1-(((S)-1-(5-(2,4-difluorophenyl)-1H-imidazol-2-yl)ethyl)amino)-4-((S)-2-methylpiperidin-1-yl)-1,4-dioxobutan-2-yl)-3,3-dimethylcyclobutane-1-carboxamide]	5.7 µM
Cc1cc(C(=O)N[C@@H](CC(=O)N2CCCC[C@@H]2C)C(=O)N[C@@H](C)c2ncc(-c3ccccc3)[nH]2)no1 [CEN-116, 5-Methyl-N—((S)-4-((S)-2-methylpiperidin-1-yl)-1,4-dioxo-1-(((S)-1-(5-phenyl-1H-imidazol-2-yl)ethyl)amino)butan-2-yl)isoxazole-3-carboxamide]	9.5 µM
